Laboratory results taken from PubChem BioAssay (NCI).
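Step 1: Grow cells in 96-well plates. Step 2: Expose to compound for 48 hours at 5 concentrations. Step 3: Interpolate endpoints linearly; if unreached, use highest concentration. The concentration for 50% growth inhibition is given as GI50. TGI: total growth inhibition.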

Assays:
Experiment in all cases: growth of human tumour cells (NCI), 48 h
[1] = test system: NCI-H460 lung
[2] = test system: HT29 colon
[3] = test system: U251 CNS
[4] = test system: NCI-H23 lung
[5] = test system: KM12 colon
[6] = test system: COLO 205 colon
[7] = test system: EKVX NSCLC
[8] = test system: SW-620 colon
[9] = test system: HOP-92 NSCLC
[10] = test system: K-562 leukemia

With NC(CCP(=O)(O)CCC1C=CC=CC1)C(=O)O (configuration not stated) as the molecule, how does the TGI [1] read?
Its TGI is > 100 µM.

And the TGI [2]?
The TGI was > 100 µM.

What about the TGI [3] of the same molecule?
Its TGI is > 100 µM.

And the TGI [4]?
The TGI was > 100 µM.

What about the TGI [5] of the same molecule?
Its TGI is > 100 µM.

What about the TGI [6] of the same molecule?
The TGI was > 100 µM.

What about the TGI [7] of the same molecule?
Its TGI is > 100 µM.

And the TGI [8]?
The TGI was > 100 µM.

What about the TGI [9] of the same molecule?
The TGI was > 100 µM.

And the TGI [10]?
The TGI was > 100 µM.

With O=C(O)C1Cc2c([nH]c3ccccc23)C=N1 (configuration not stated) as the molecule, how does the TGI [1] read?
Its TGI is > 100 µM.

What about the TGI [2] of the same molecule?
The TGI was > 100 µM.

And the TGI [3]?
Its TGI is > 100 µM.

What about the TGI [4] of the same molecule?
Its TGI is > 100 µM.

And the TGI [5]?
The TGI was > 31.7 µM.

And the TGI [6]?
Its TGI is > 100 µM.

What about the TGI [7] of the same molecule?
The TGI was > 100 µM.

And the TGI [8]?
Its TGI is > 100 µM.

What about the TGI [9] of the same molecule?
Its TGI is > 100 µM.

And the TGI [10]?
The TGI was > 100 µM.

For CC12CCC(C(=O)N3CC=CCC3)(OC1=O)C2(C)C (configuration not stated), which TGI [1] is on record?
Its TGI is > 100 µM.

And the TGI [2]?
Its TGI is > 100 µM.

What about the TGI [3] of the same molecule?
The TGI was > 100 µM.

What about the TGI [4] of the same molecule?
Its TGI is > 100 µM.

And the TGI [5]?
Its TGI is > 100 µM.

And the TGI [6]?
Its TGI is > 100 µM.

What about the TGI [7] of the same molecule?
Its TGI is > 100 µM.

And the TGI [8]?
The TGI was > 100 µM.

And the TGI [9]?
The TGI was > 100 µM.

And the TGI [10]?
Its TGI is > 100 µM.

Which TGI [1] does the source give for COc1cc(C2=C(C#N)C(N)OC3=C2COc2ccccc23)cc(OC)c1OC (configuration not stated) here?
Its TGI is 84.8 µM.

And the TGI [2]?
The TGI was > 100 µM.

What about the TGI [3] of the same molecule?
The TGI was 33.2 µM.

And the TGI [4]?
The TGI was > 100 µM.

And the TGI [5]?
The TGI was > 100 µM.

What about the TGI [6] of the same molecule?
The TGI was > 100 µM.

What about the TGI [7] of the same molecule?
Its TGI is 43.7 µM.

And the TGI [8]?
The TGI was > 100 µM.

What about the TGI [9] of the same molecule?
Its TGI is > 100 µM.

And the TGI [10]?
The TGI was > 100 µM.

How did the GI50 [1] turn out when Nc1ccc2c3c(n(CCCCl)c(=O)c2c1)-c1cc2c(cc1C3=O)OCO2 was run?
Its GI50 is 0.14 µM.

What about the TGI [1] of the same molecule?
Its TGI is > 100 µM.

What about the GI50 [2] of the same molecule?
The GI50 was > 100 µM.

And the TGI [2]?
The TGI was > 100 µM.

And the GI50 [3]?
The GI50 was > 100 µM.

What about the TGI [3] of the same molecule?
The TGI was > 100 µM.

What about the GI50 [4] of the same molecule?
Its GI50 is 0.562 µM.

What about the TGI [4] of the same molecule?
The TGI was 25.8 µM.

What about the GI50 [5] of the same molecule?
The GI50 was 41.6 µM.

What about the TGI [5] of the same molecule?
Its TGI is > 100 µM.

What about the GI50 [6] of the same molecule?
The GI50 was > 100 µM.

And the TGI [6]?
Its TGI is > 100 µM.

And the GI50 [8]?
The GI50 was > 100 µM.

What about the TGI [8] of the same molecule?
The TGI was > 100 µM.

What about the GI50 [9] of the same molecule?
Its GI50 is > 100 µM.

And the TGI [9]?
Its TGI is > 100 µM.

What about the GI50 [10] of the same molecule?
Its GI50 is > 100 µM.

And the TGI [10]?
The TGI was > 100 µM.

How did the TGI [1] turn out when CCC(=O)NC(Nc1ccc(O)cc1)(C(F)(F)F)C(F)(F)F was run?
Its TGI is > 100 µM.

And the TGI [2]?
The TGI was > 100 µM.

What about the TGI [3] of the same molecule?
The TGI was > 100 µM.

What about the TGI [4] of the same molecule?
Its TGI is > 100 µM.

What about the TGI [5] of the same molecule?
The TGI was > 100 µM.

What about the TGI [7] of the same molecule?
Its TGI is > 100 µM.

And the TGI [10]?
The TGI was > 100 µM.

How did the TGI [1] turn out when COC(=O)c1ccc(N=NN(C)COc2ccc([N+](=O)[O-])cc2)cc1 was run?
The TGI was > 100 µM.

What about the TGI [2] of the same molecule?
Its TGI is > 100 µM.

What about the TGI [3] of the same molecule?
The TGI was > 100 µM.

What about the TGI [4] of the same molecule?
Its TGI is > 100 µM.

And the TGI [5]?
Its TGI is > 100 µM.

What about the TGI [6] of the same molecule?
Its TGI is > 100 µM.

And the TGI [7]?
Its TGI is > 100 µM.

And the TGI [8]?
The TGI was > 100 µM.

And the TGI [9]?
Its TGI is > 100 µM.

What about the TGI [10] of the same molecule?
The TGI was > 100 µM.

With N=C(N)c1csc([C@@H]2O[C@H](CO)[C@@H](O)[C@H]2O)n1 as the molecule, how does the TGI [1] read?
Its TGI is > 100 µM.

And the TGI [3]?
Its TGI is > 100 µM.

What about the TGI [4] of the same molecule?
Its TGI is > 100 µM.

What about the TGI [5] of the same molecule?
Its TGI is > 100 µM.

And the TGI [7]?
The TGI was > 100 µM.

And the TGI [8]?
The TGI was > 100 µM.

And the TGI [10]?
Its TGI is > 100 µM.
